# Data from patent US20150212068A1, “Cholyl-L-Lysyl-Fluorescein Assay” (Novassay SA, priority 2012, published 2015).
# Columns and labels:
# [1] = Stability of CLF-spiked serum samples after 12 day storage at 2-8° C., CLF ELISA; assay type: in vitro ADME, human
# Description: (§1) These conditions were used for all assays described in Phase 2a (above) and Phase 2b (below). See Appendix B and C for buffer and conjugate formulations respectively: • Add 25 μl/well of sample or standard (0-1000 ng/ml CLF in Buffer #24) to the wells of a streptavidin-coated microtitre plate (NovAssay, F2SAC). • Add 100 μl/well of fluorescein-biotin (Sigma B9431) at 20 ng/ml in Buffer #24+0.2% w/v ANS (Sigma 10417). • Add 100 μl/well of anti-fluorescein HRP (NovAssay, DV047/17-3) at 100 ng/ml in Buffer #24. • Incubate the plate for 30 minutes at room temperature. • Wash the plate 3 times with 800 μl/well Buffer #29 and tap the plate dry. • Add 100 μl/well of SureBlue Reserve TMB Substrate (KPL) and incubate the plate for 10 minutes at room temperature. • Stop the substrate reaction by adding 100 μl/well of 1M HCl and read the absorbance at 450 nm wavelength (ThermoFisher Scientific, Multiskan FC).
# Sample drift was assessed by using two sera spiked with CLF to 4 levels (62.5, 125, 250 and 500 ng/ml). Each of the samples were added to streptavidin coated wells (in duplicate) soon after the addition of the standards (time 0, in columns 5&6)); after 5 minutes the samples were added to columns 7&8; “5 minute” time point” 5 minutes later in columns 9&10 (“10 minute time point” and 5 minutes later in columns 11&12 (“15 minute time point”). The samples used were prepared 12 days prior to the experiment and were kept at 2-8° C. In addition, some other serum samples that were spiked with CLF at the same time (12 days prior to the assay) were also measured in order to determine the stability of CLF (note: The data obtained are the results of 2 variables (instability of CLF and the recovery) and thus represent a “worst case scenario”.
# The level of instability (after 12 day storage at 2-8° C.) was calculated by comparing the results obtained with the expected results.
# [2] = Stability of buffer-based CLF standards after 4 weeks storage at 2-8° C., CLF ELISA; assay type: physicochemical; details: for mean OD, fresh: freshly made; for decrease in immunoreactivity: buffer-based CLF standards
# Description: as §1
# Standards were prepared by spiking CLF into buffer (6 standards having a concentration span of 0 to 1000 ng/ml). The standards were stored at 2-8° C. for 4 weeks. They were then taken out of the fridge and assayed alongside standards that were freshly made.
# [3] = 12 day storage at 2-8° C., pool1, Expected 125 ng/ml
# [4] = 12 day storage at 2-8° C., pool2, Expected 31.25 ng/ml
# [5] = 12 day storage at 2-8° C., pool3, Expected 500 ng/ml
# [6] = 12 day storage at 2-8° C., sample 5876, Expected 1000 ng/ml
# [7] = 12 day storage at 2-8° C., sample 5881, Expected 1000 ng/ml
# [8] = 12 day storage at 2-8° C., sample 5883, Expected 500 ng/ml
# [9] = 12 day storage at 2-8° C., sample 5883, Expected 1000 ng/ml
# [10] = 12 day storage at 2-8° C., sample 5884, Expected 62.5 ng/ml
# [11] = 12 day storage at 2-8° C., sample 5884, Expected 125 ng/ml
# [12] = 12 day storage at 2-8° C., sample 5884, Expected 250 ng/ml
# [13] = 12 day storage at 2-8° C., sample 5884, Expected 500 ng/ml
# [14] = 12 day storage at 2-8° C., sample 5885, Expected 62.5 ng/ml
# [15] = 12 day storage at 2-8° C., sample 5885, Expected 125 ng/ml
# [16] = 12 day storage at 2-8° C., sample 5885, Expected 250 ng/ml
# [17] = 12 day storage at 2-8° C., sample 5885, Expected 500 ng/ml
# [18] = 12 day storage at 2-8° C., sample 5885, Expected 1000 ng/ml
# [19] = Fresh std 16 ng/ml, 4 weeks at 2-8° C.
# [20] = Fresh std 31 ng/ml, 4 weeks at 2-8° C.
# [21] = Fresh std 63 ng/ml, 4 weeks at 2-8° C.
# [22] = Fresh std 125 ng/ml, 4 weeks at 2-8° C.
# [23] = Fresh std 250 ng/ml, 4 weeks at 2-8° C.
# [24] = Fresh std 500 ng/ml, 4 weeks at 2-8° C.
# [25] = Fresh std 1000 ng/ml, 4 weeks at 2-8° C.
structure (smiles),measurement,setting,value
"CC(CCC(=O)NC(CCCCNC(=S)Nc1ccc(-c2c3ccc(=O)cc-3oc3cc(O)ccc23)c(C(=O)O)c1)C(=O)O)C1CCC2C3C(O)CC4CC(O)CCC4(C)C3CC(O)C12C [CLF, Cholyl-L-Lysyl-Fluorescein]","Difference, mean","[1]; 12 day storage at 2-8° C., mean of all samples",−27%
same,Difference,[1]; [3],−39%
same,observed,[1]; [3],76 ng/mL
same,Difference,[1]; [4],−14%
same,observed,[1]; [4],27 ng/mL
same,Difference,[1]; [5],−27%
same,observed,[1]; [5],365 ng/mL
same,Difference,[1]; [6],−24%
same,observed,[1]; [6],756 ng/mL
same,Difference,[1]; [7],−18%
same,observed,[1]; [7],820 ng/mL
same,Difference,[1]; [8],−25%
same,observed,[1]; [8],375 ng/mL
same,Difference,[1]; [9],−10%
same,observed,[1]; [9],903 ng/mL
same,Difference,[1]; [10],−29%
same,observed,[1]; [10],44 ng/mL
same,Difference,[1]; [11],−36%
same,observed,[1]; [11],80 ng/mL
same,Difference,[1]; [12],−39%
same,observed,[1]; [12],153 ng/mL
same,Difference,[1]; [13],−32%
same,observed,[1]; [13],340 ng/mL
same,Difference,[1]; [14],−27%
same,observed,[1]; [14],46 ng/mL
same,Difference,[1]; [15],−33%
same,observed,[1]; [15],84 ng/mL
same,Difference,[1]; [16],−29%
same,observed,[1]; [16],177 ng/mL
same,Difference,[1]; [17],−24%
same,observed,[1]; [17],379 ng/mL
same,Difference,[1]; [18],−20%
same,observed,[1]; [18],804 ng/mL
same,reduction in measured CLF (mean),[1]; samples kept at 2-8 C. for 12 days,27%) occurs when samples are kept
same,reduction in measured CLF (mean),"[1]; spiked serum samples kept at 2-8° C. for 12 days, vs expected",27%
same,4-week stds,[2]; [19],5 ng/mL
same,% change in CLF immunoreactivity,[2]; [19],−67%
same,4-week stds,[2]; [20],17 ng/mL
same,% change in CLF immunoreactivity,[2]; [20],−44%
same,4-week stds,[2]; [21],38 ng/mL
same,% change in CLF immunoreactivity,[2]; [21],−40%
same,4-week stds,[2]; [22],72 ng/mL
same,% change in CLF immunoreactivity,[2]; [22],−42%
same,4-week stds,[2]; [23],162 ng/mL
same,% change in CLF immunoreactivity,[2]; [23],−35%
same,4-week stds,[2]; [24],359 ng/mL
same,% change in CLF immunoreactivity,[2]; [24],−28%
same,4-week stds,[2]; [25],685 ng/mL
same,% change in CLF immunoreactivity,[2]; [25],−31%
same,"mean OD, 4-week old stds","[2]; buffer standard 16 ng/ml, 4 weeks at 2-8° C.",3.219
same,"mean OD, fresh",[2]; buffer standard 16 ng/ml,2.745
same,"mean OD, 4-week old stds","[2]; buffer standard 31 ng/ml, 4 weeks at 2-8° C.",2.699
same,"mean OD, fresh",[2]; buffer standard 31 ng/ml,2.265
same,"mean OD, 4-week old stds","[2]; buffer standard 63 ng/ml, 4 weeks at 2-8° C.",2.133
same,"mean OD, fresh",[2]; buffer standard 63 ng/ml,1.653
same,"mean OD, 4-week old stds","[2]; buffer standard 125 ng/ml, 4 weeks at 2-8° C.",1.577
same,"mean OD, fresh",[2]; buffer standard 125 ng/ml,0.884
same,"mean OD, 4-week old stds","[2]; buffer standard 250 ng/ml, 4 weeks at 2-8° C.",0.953
same,"mean OD, fresh",[2]; buffer standard 250 ng/ml,0.661
same,"mean OD, 4-week old stds","[2]; buffer standard 500 ng/ml, 4 weeks at 2-8° C.",0.528
same,"mean OD, fresh",[2]; buffer standard 500 ng/ml,0.419
same,"mean OD, 4-week old stds","[2]; buffer standard 1000 ng/ml, 4 weeks at 2-8° C.",0.317
same,"mean OD, fresh",[2]; buffer standard 1000 ng/ml,0.235
same,decrease in immunoreactivity,[2]; 4 weeks at 2-8 C.,resulted in a 30-40% decrease in
same,decrease in immunoreactivity,"[2]; 4 weeks at 2-8° C., vs fresh standards",30-40%
